Values after ≈ are worked out from the molar mass of the structure shown.
Key:
[1] = system: Aspergillus fumigatus (ATCC 13073); experiment: IFNγ, IL-17 and MDA levels in BALF of Aspergillus fumigatus infected mice; format: in vivo; conditions: for ID50, IFNγ in BALF / ID50, IL-17 in BALF / ID50, MDA in BALF: Prophylactic Regimen
Experimental: (§1) Aspergillus fumigatus (ATCC 13073 [strain: NIH 5233], American Type Culture Collection, Manassas, Va., USA) was grown on Malt agar (Nissui Pharmaceutical, Tokyo, Japan) plates for 6-7 days at RT (24±1° C.). Spores were aseptically dislodged from the agar plates and suspended in sterile distilled water with 0.05% Tween 80 and 0.1% agar. On the day of infection, spore counts were assessed by haemocytometer and the inoculum was adjusted to obtain a concentration of 1.67×10^8 spores mL^−1 of physiological saline.
(§2) On day 0, animals were infected with the spore suspension (35 μL intra-nasally).
(§3) Test compounds were administered intra-nasally ([…]) once daily, 30 min before infection on day 0 and then on days 1, 2 and 3 (representing prophylactic treatment) or on days 1, 2 and 3 only (representing therapeutic treatment). For extended prophylactic treatment, test compounds (35 μL of a suspension of 0.0032 or 0.016 mg/mL in physiological saline) were administered intra-nasally once daily for seven days; then 30 min before infection on day 0, and thereafter, either on days 1, 2 and 3 after infection, or on day 0 only. The effects of these treatment paradigms were compared with those obtained when treatment was restricted to one day and 30 min before inoculation and then on days 1, 2 and 3 post infection; or reduced still further to one day and 30 min before infection only.
(§4) Six hours after the last dose, animals were anesthetised, the trachea was cannulated and BALF was collected. The total number of alveolar cells was determined using a haemocytometer, and the numbers of alveolar macrophages and neutrophils were determined by FACS analysis (EPICS® ALTRA II, Beckman Coulter, Inc., Fullerton, Calif., USA) using anti-mouse MOMA2-FITC (macrophage) or anti-mouse 7/4 (neutrophil), respectively, as previously reported (Kimura et al., 2013). The levels of IFN-γ and IL-17 in BALF, and IL-6 and TNFα in serum were determined using Quantikine® mouse IFN-γ, IL-17, IL-6 or TNF-α ELISA kit (R&D systems, Inc., Minneapolis, Minn., USA) respectively. MDA, an oxidative stress marker, was assayed using OxiSelect® TBARS Assay Kits (MDA Quantitation; Cell Biolabs Inc, San Diego, Calif., USA). Aspergillus GM in serum was determination using Platelia GM-EIA kits (Bio-Rad Laboratories, Redmond, Wash., USA). Cut-off index was calculated by the formula: Cut-off index=OD in sample/OD in cut-off control provided in kit. For tissue fungal load assays, 100 mg of lung tissue was removed aseptically and homogenized in 0.2 mL of 0.1% agar in sterile distilled water. Serially diluted lung homogenates were plated on Malt agar plates (50 μL/plate), and incubated at 24±1° C. for 72 to 96 h. The colonies of A. fumigatus on each plate was counted and the fungal titre presented as CFU per gram of lung tissue.

[2] = system: Aspergillus fumigatus (ATCC 13073); experiment: In vivo anti-fungal activity: CFU in lung and galactomannan in BALF and serum; set-up: species or system mice; conditions: for ID50, GM in BALF / ID50, GM in serum / ID50, Lung Fungal Load: Prophylactic Regimen
Experimental: as §1, §2, §3, §4

[3] = prophylactic, 0.08 mg/mL intra-nasally
[4] = prophylactic, 0.4 mg/mL intra-nasally
[5] = prophylactic, 2 mg/mL intra-nasally
[6] = therapeutic, 0.4 mg/mL intra-nasally
[7] = therapeutic, 2 mg/mL intra-nasally
[8] = therapeutic, 10 mg/mL intra-nasally
[9] = Prophylactic Treatment, 0.08 mg/mL intra-nasally
[10] = Prophylactic Treatment, 0.4 mg/mL intra-nasally
[11] = Prophylactic Treatment, 2 mg/mL intra-nasally
[12] = Therapeutic Treatment, 0.4 mg/mL intra-nasally
[13] = Therapeutic Treatment, 2 mg/mL intra-nasally
[14] = Therapeutic Treatment, 10 mg/mL intra-nasally

SMILES: Cc1cc(N2CCN(c3ccc(C(=O)Nc4ccc(F)cc4)cc3)CC2)ccc1OC[C@@H]1CO[C@@](Cn2cncn2)(c2ccc(F)cc2F)C1 [Compound (I), 4-(4-(4-(((3R,5R)-5-((1H-1,2,4-triazol-1-yl)methyl)-5-(2,4-difluorophenyl)tetrahydrofuran-3-yl)methoxy)-3-methylphenyl)piperazin-1-yl)-N-(4-fluorophenyl)benzamide]
- ID50, IFNγ in BALF [1]: <80 µg/mL
- ID50, IL-17 in BALF [1]: 74 µg/mL (≈ 108 µM)
- ID50, MDA in BALF [1]: 110 µg/mL (≈ 161 µM)
- IFNγ concentration in BALF [1, 3]: 3.7 ± 1.7 pg/mL
- IFNγ in BALF, % Inhibition [1, 3]: 60%
- IL-17 concentration in BALF [1, 3]: 9.8 ± 5.3 pg/mL
- IL-17 in BALF, % Inhibition [1, 3]: 51%
- MDA concentration in BALF [1, 3]: 0.96 ± 0.32 µg/mL
- MDA in BALF, % Inhibition [1, 3]: 47%
- IFNγ concentration in BALF [1, 4]: 3.0 ± 0.8 pg/mL
- IFNγ in BALF, % Inhibition [1, 4]: 67%
- IL-17 concentration in BALF [1, 4]: 6.7 ± 4.9 pg/mL
- IL-17 in BALF, % Inhibition [1, 4]: 66%
- MDA concentration in BALF [1, 4]: 0.57 ± 0.22 µg/mL
- MDA in BALF, % Inhibition [1, 4]: 68%
- IFNγ concentration in BALF [1, 5]: 2.5 ± 0.3 pg/mL
- IFNγ in BALF, % Inhibition [1, 5]: 73%
- IL-17 concentration in BALF [1, 5]: 3.2 ± 0.8 pg/mL
- IL-17 in BALF, % Inhibition [1, 5]: 84%
- MDA concentration in BALF [1, 5]: 0.34 ± 0.05 µg/mL
- MDA in BALF, % Inhibition [1, 5]: 81%
- IFNγ concentration in BALF [1, 6]: 4.3 ± 2.2 pg/mL
- IFNγ in BALF, % Inhibition [1, 6]: 53%
- IL-17 concentration in BALF [1, 6]: 8.5 ± 2.9 pg/mL
- IL-17 in BALF, % Inhibition [1, 6]: 57%
- MDA concentration in BALF [1, 6]: 0.45 ± 0.10 µg/mL
- MDA in BALF, % Inhibition [1, 6]: 75%
- IFNγ concentration in BALF [1, 7]: 3.3 ± 0.8 pg/mL
- IFNγ in BALF, % Inhibition [1, 7]: 64%
- IL-17 concentration in BALF [1, 7]: 4.0 ± 0.8 pg/mL
- IL-17 in BALF, % Inhibition [1, 7]: 80%
- MDA concentration in BALF [1, 7]: 0.37 ± 0.10 µg/mL
- MDA in BALF, % Inhibition [1, 7]: 79%
- IFNγ concentration in BALF [1, 8]: 2.1 ± 0.3 pg/mL
- IFNγ in BALF, % Inhibition [1, 8]: 77%
- IL-17 concentration in BALF [1, 8]: 2.9 ± 0.7 pg/mL
- IL-17 in BALF, % Inhibition [1, 8]: 85%
- MDA concentration in BALF [1, 8]: 0.25 ± 0.05 µg/mL
- MDA in BALF, % Inhibition [1, 8]: 86%
- ID50, GM in BALF [2]: <80 µg/mL
- ID50, GM in serum [2]: <80 µg/mL
- ID50, Lung Fungal Load [2]: 86 µg/mL (≈ 126 µM)
- CFU in lung [2, 9]: 15.2 ± 13.7 /mg of lung
- CFU in lung, % inhibition [2, 9]: 46%
- GM in BALF [2, 9]: 0.70 ± 0.39 COI
- GM in BALF, % inhibition [2, 9]: 85%
- GM in serum [2, 9]: 0.81 ± 0.52 COI
- GM in serum, % inhibition [2, 9]: 85%
- CFU in lung [2, 10]: 2.1 ± 1.6 /mg of lung
- CFU in lung, % inhibition [2, 10]: 93%
- GM in BALF [2, 10]: 0.37 ± 0.46 COI
- GM in BALF, % inhibition [2, 10]: 92%
- GM in serum [2, 10]: 0.24 ± 0.18 COI
- GM in serum, % inhibition [2, 10]: 95%
- CFU in lung [2, 11]: 0.8 ± 0.7 /mg of lung
- CFU in lung, % inhibition [2, 11]: 97%
- GM in BALF [2, 11]: 0.13 ± 0.02 COI
- GM in BALF, % inhibition [2, 11]: 97%
- GM in serum [2, 11]: 0.18 ± 0.07 COI
- GM in serum, % inhibition [2, 11]: 97%
- CFU in lung [2, 12]: 3.8 ± 1.0 /mg of lung
- CFU in lung, % inhibition [2, 12]: 87%
- GM in BALF [2, 12]: 0.24 ± 0.06 COI
- GM in BALF, % inhibition [2, 12]: 95%
- GM in serum [2, 12]: 0.29 ± 0.11 COI
- GM in serum, % inhibition [2, 12]: 95%
- CFU in lung [2, 13]: 1.9 ± 1.7 /mg of lung
- CFU in lung, % inhibition [2, 13]: 93%
- GM in BALF [2, 13]: 0.22 ± 0.14 COI
- GM in BALF, % inhibition [2, 13]: 95%
- GM in serum [2, 13]: 0.25 ± 0.19 COI
- GM in serum, % inhibition [2, 13]: 95%
- CFU in lung [2, 14]: 0.5 ± 0.3 /mg of lung
- CFU in lung, % inhibition [2, 14]: 98%
- GM in BALF [2, 14]: 0.11 ± 0.05 COI
- GM in BALF, % inhibition [2, 14]: 98%
- GM in serum [2, 14]: 0.24 ± 0.11 COI
- GM in serum, % inhibition [2, 14]: 95%

SMILES: CC[C@@H]([C@H](C)O)n1ncn(-c2ccc(N3CCN(c4ccc(OC[C@@H]5CO[C@@](Cn6cncn6)(c6ccc(F)cc6F)C5)cc4)CC3)cc2)c1=O [Posaconazole]
- ID50, IFNγ in BALF [1]: 220 µg/mL (≈ 314 µM)
- ID50, IL-17 in BALF [1]: 610 µg/mL (≈ 870 µM)
- ID50, MDA in BALF [1]: 690 µg/mL (≈ 985 µM)
- ID50, GM in BALF [2]: 1300 µg/mL (≈ 1860 µM)
- ID50, GM in serum [2]: 470 µg/mL (≈ 671 µM)
- ID50, Lung Fungal Load [2]: 240 µg/mL (≈ 342 µM)
